According to patent US8298176B2, “Flow-induced delivery from a drug mass” (priority 2006, dated 2012):

Legend:
[1] = cited from earlier work
[2] = body temperature / in the presence of water; cited from earlier work
[3] = Dissolution of gacyclidine base pellets in a continuous flow reactor (elution with Ringer's solution containing hydrochloric acid); assay type: physicochemical; settings: for pH of the eluted drug solution: room temperature (23±2° C.)
Protocol: A drug chamber similar to the one illustrated in FIGS. 2 and 4 was loaded with 11 pellets of gacyclidine base having a combined mass of 18 mg. This drug-loaded chamber was eluted at a flow rate of 20 μL/hr at room temperature (23±2° C.) using a MiniMed 508 syringe pump (available from Medtronics MiniMed of Northridge, Calif.). The syringe was loaded with 3 mL of Ringer's solution containing 0.05 to 3 mM hydrochloric acid. The eluted volume was collected in PTFE tubing attached to the pump drug capsule assembly, after a 3-D antibacterial filter. The pH of this solution was determined by use of a pH meter equipped with a Calomel electrode. Drug concentration was determined by HPLC.
The highest pH of the eluted drug solution (5.9) was obtained at 0.05 mM hydrochloric acid, and the lowest pH of the eluted drug solution (5.6) was obtained at 3 mM hydrochloric acid. These pH values indicate quantitative conversion of the hydrochloric acid to the drug salt and are consistent with the pH expected for solutions of the hydrochloride salt.

CC1(C)O[C@@H]2C[C@H]3[C@@H]4CCC5=CC(=O)C=C[C@]5(C)[C@@]4(F)[C@@H](O)C[C@]3(C)[C@]2(C(=O)CO)O1 [triamcinolone acetonide]
water solubility (in words) [1]: very low water solubility

C[C@H]1CCCC[C@@]1(c1cccs1)N1CCCCC1.Cl [hydrochloride salt of gacyclidine]
stability (in words) [2]: unstable at body temperature | water solubility (in words) [1]: highly water soluble

CCN(CC)C(=O)SC[C@H](NC(=O)CC[C@H](N)C(=O)O)C(=O)NCC(=O)O [carbamathione]
water solubility (in words) [1]: sparingly soluble in water

CC1CCCCC1(c1cccs1)N1CCCCC1 (stereo not shown) [gacyclidine]
correlation in gacyclidine concentration per hydrochloric acid concentration used for elution ([3]; 0.05 to 3 mM HCl in Ringer's solution, 20 μL/hr, linear fit of FIG. 26, drug by HPLC): 0.976±0.049 | pH of the eluted drug solution ([3]; eluted with Ringer's solution containing 0.05 mM hydrochloric acid, 20 μL/hr, highest pH): 5.9 | pH of the eluted drug solution ([3]; eluted with Ringer's solution containing 3 mM hydrochloric acid, 20 μL/hr, lowest pH): 5.6 | intercept at zero concentration of hydrochloric acid ([3]; linear fit of FIG. 26, gacyclidine concentration in eluate): 0.0014 ± 0.0061 mM | stability (in words) [2]: much more stable than its acidic form in the presence of water | water solubility (in words) [1]: sparingly soluble in water
